# From US5990346A, “Prostaglandins and processes for production thereof” (Teijin Limited, priority 1995, dated 1999)
# Tested on: THP-1 cells (cell migration caused by MCP-1)
# Experiment: Inhibitory activity of cell migration caused by MCP-1 (microchemotaxis chamber)
# Format: cell-based
# Settings: Homo sapiens, THP-1, 2 h, recombinant human MCP-1 20 ng/ml, 37° C.
# Experimental: Measurement of Inhibitory Activity of Cell Migration Caused by MCP-1
# To evaluate the activity of the test compounds listed in the following table in inhibiting cell migration, the cell migration caused by the monocyte chemotactic protein MCP-1/MCAF was measured using human premonocyte-derived leukemia cells THP-1 (ATCCTIB203) as migrating cells and the method of FALK et al. (J. Immunol. Methods, vol. 33, pp. 239 to 247 (1980)) as follows. That is, to the upper chamber (200 μl) of a 96-well microchemotaxis chamber (made by Neuroprobe Co.) was added 2×10^6 /ml THP-1 cells (10% fetal calf serum (FCS) containing RPMI-1640 medium (made by Flow Laboratories Co.), while to the lower chamber (35 μl) was placed recombinant human MCP-1 (made by Peprotech Co.) diluted by the same solution to give a final concentration of 20 ng/ml. Between the two chambers, a polycarbonate filter (pore size 5 μm, PVP-free, made by Neuroprobe Co.) was affixed. Incubation was performed at 37° C. in the presence of 5% CO2 for 2 hours. The filter was taken out and the cells migrating to the lower surface of the filter were immobilized and stained by a DiffQuick solution (made by Kokusai Shiyaku Co.) Next, a Breedmeter (made by Molecular Device Co.) was used for measurement at a measurement wavelength of 550 nm and the mean value of three wells was found and used as an indicator of the number of migrating cells. At this time, the test compound was added to the upper chamber together with THP-1 cells in various concentrations to find the cell migration inhibitory activity. The cell migration inhibition % was found by dividing the (number of migrating cells caused by MCP-1 added to the lower chamber in the case of addition of the test compound to the upper chamber)-(number of migrating cells in the case of no test compound added to the upper chamber and no MCP-1 added to the lower chamber) by (number of migrating cells caused by MCP-1 added to the lower chamber in the case of no test compound added to the upper chamber)-(number of migrating cells in the case of no test compound added to the upper chamber and no MCP-1 added to the lower chamber).
row,IC50 [nM],Structure (SMILES)
1,360,"COC(=O)COCCCSC1=C(C)C[C@@H](O)[C@@H]1/C=C/C(O)Cc1ccccc1 (single isomer, unassigned)"
2,150,CCCC[C@@H](C)C[C@H](O)/C=C/[C@@H]1C(SCCCCCC(=O)O)=CC[C@H]1O [drawing 90]
3,120,COC(=O)CCCCCSC1=C(C)C[C@@H](O)[C@@H]1CCC(O)Cc1ccccc1 (some centres unmarked)
4,380,COC(=O)CCCCCSC1=CC[C@@H](O)[C@@H]1/C=C/[C@@H](O)Cc1ccccc1
5,470,CCCC[C@@H](C)C[C@H](O)/C=C/[C@@H]1C(SCCCCCC(=O)OC)=C(C(=O)OC)C[C@H]1O
6,65,"COC(=O)CCCCCCC1=C(C)C[C@@H](O)[C@@H]1/C=C/C(O)Cc1ccccc1 (single isomer, unassigned)"
7,15,"COC(=O)CCCCCSC1=C(C)CCC1/C=C/[C@@H](O)Cc1ccccc1 (single isomer, unassigned)"
8,600,CCCC[C@@H](C)C[C@H](O)/C=C/[C@@H]1C(SCCCCCC(=O)OC)=C(CCC(C)(C)C)C[C@H]1O
9,190,CCCC[C@@H](C)C[C@H](O)/C=C/[C@@H]1C(SCCCCCC(=O)OC)=C(C=O)C[C@H]1O
10,72,CCCC[C@@H](C)C[C@H](O)/C=C/[C@@H]1C(SCCCCCC(=O)O)=C(C)C[C@H]1O
11,16,"CC1=C(SCCCCCC(=O)O)[C@@H](/C=C/C(O)Cc2ccccc2)[C@H](O)C1 (single isomer, unassigned) [Example 34]"
12,210,CCCC[C@@H](C)C[C@H](O)/C=C/[C@@H]1C(SCCCCCC(=O)OC)=C(C(C)=O)C[C@H]1O
13,450,CCCCCC1=C(SCCCCCC(=O)OC)[C@@H](/C=C/[C@@H](O)C[C@H](C)CCCC)[C@H](O)C1
14,2500,CCCC[C@@H](C)C[C@H](O)/C=C/[C@@H]1C(SCCCCCC(=O)OC)=C(C(F)(F)F)C[C@H]1O
15,26,CCCC[C@@H](C)C[C@H](O)/C=C/[C@@H]1C(SCCCCCC(=O)OC)=C(C)C[C@H]1O [drawing 82]
16,13,CCCC[C@@H](C)C[C@H](O)/C=C/[C@@H]1C(SCCCCCC(=O)OC)=CC[C@H]1O [drawing 89]
17,200,"COC(=O)CCCCCSC1=C(C2CC2)C[C@@H](O)[C@@H]1/C=C/C(O)Cc1ccccc1 (single isomer, unassigned)"

# Same assay, conditions: recombinant human MCP-1 20 ng/ml, 37° C., 2 hours
row,IC50 [nM],Structure (SMILES)
1,10,"COC(=O)CCCCCSC1=C(C)C[C@@H](O)[C@@H]1/C=C/C(O)Cc1ccccc1 (single isomer, unassigned) [drawing 93]"
2,210,"COC(=O)CCCCCSC1=C(C)C[C@@H](O)[C@@H]1/C=C/C(O)Cc1ccccc1 (single isomer, unassigned) [drawing 92]"

# Tested on: vascular smooth muscle cells (cell migration caused by PDGF)
# Experiment: Inhibitory activity of cell migration caused by PDGF (Transwell chamber)
# Format: cell-based
# Settings: human PDGF 10 ng/ml, 37° C., 6 hours
# Experimental: Measurement of Inhibitory Activity of Cell Migration Caused by PDGF
# To evaluate the activity of the test compounds listed in the following table to inhibit cell migration caused by PDGF, the migrating cells caused by human platelet derived growth factor (PDGF) were measured in the following way using the vascular smooth muscle cells derived from normal human arteries (made by Kurabo) and according to the method of MaCarthy et al. (J. Cell. Biol. 97, 772-777 (1983)). That is, a Transwell Chamber (Costar Co., registered trademark) was used to measure the inhibitory action. The chamber was divided into two layers, upper and lower, by a 8 μm pore size membrane filter (PVP-free polycarbonate filter, Nucleopore Co., registered trademark). […] The cells on the upper surface of the filter were removed by wiping with a cotton swab and the cells that had migrated to the lower surface of the filter were counted under a high output microscope (×200). Usually, five fields were counted per filter. […]
row,IC50 [nM],Structure (SMILES)
1,81,"COC(=O)CCCCCSC1=C(C)C[C@@H](O)[C@@H]1/C=C/C(O)Cc1ccccc1 (single isomer, unassigned) [drawing 100]"
2,73,"CC1=C(SCCCCCC(=O)O)[C@@H](/C=C/C(O)Cc2ccccc2)[C@H](O)C1 (single isomer, unassigned) [Example 34]"

# Tested on: thickening of intima of carotid artery of rat
# Experiment: Thickening of intima of carotid artery of rat due to balloon catheter
# Format: in vivo, Male Wistar rats
# Settings: 3.2 μg/rat/hr subcutaneously, 3 days before to 11 days after surgery; measured after 14 days; control 0.935 ± 0.377
# Experimental: Thickening of Intima of Carotid Artery of Rat Due to Balloon Catheter
# The test was performed in the following manner in accordance with the method of Crose et al. (Lab. Invest., vol. 49, p. 206, 1983). Male Wistar rats having a body weight of 300 to 350 g were used. The neck of each rat was opened under anesthesia by sodium pentobarbitol, then a balloon catheter (Fogarty, 2F) was inserted from the right external carotid artery, until the starting portion of the common carotid artery. The balloon was expanded by physiological saline to such an extent causing a light resistance, then the catheter was pulled out in that state up to the carotid artery to give trauma to the intima. This procedure was repeated three times, then the catheter was withdrawn and the external carotid artery was sewn up. After 14 days, the chest was opened under anesthesia by diethyl ether, refluxing was performed from the aorta by a Carnoa solution (methanol:chloroform:acetic acid=6:3:1), then the right common carotid artery was excised and immobilized by neutral formalin solution. The immobilized carotid artery was dyed by Elasticavan Gieson dye, then the areas of the Media and thickened portion of the Intima were measured by an image resolution device (LUZEX2D). […]
row,Structure (SMILES),Intima/media (Average ± standard error)
1,"CCCC[C@@H](C)C[C@H](O)/C=C/[C@@H]1C(SCCCCCC(=O)OC)=CC[C@H]1O [Example 28, methyl (11R,12S,13E,15S,17R)-11,15-dihydroxy-17,20-dimethyl-7-thiaprosta-8,13-dienoate]",0.702 ± 0.241

# Same assay, conditions: (1-T/C)×100; 3.2 μg/rat/hr subcutaneously; vs control group
row,Structure (SMILES),Suppression Rate (intima thickening suppression rate) [%]
1,"CCCC[C@@H](C)C[C@H](O)/C=C/[C@@H]1C(SCCCCCC(=O)OC)=CC[C@H]1O [Example 28, methyl (11R,12S,13E,15S,17R)-11,15-dihydroxy-17,20-dimethyl-7-thiaprosta-8,13-dienoate]",25

# Tested on: platelets (platelet aggregation)
# Experiment: Inhibitory activity of platelet aggregation in rats
# Format: cell-based, Wistar rats (male)
# Settings: rat platelet rich plasma; 100 μM adenosine 2-phosphoric acid (5 μl) induced; 37° C.; read-out: Activity Suppressing Platelet Aggregation (Rats) IC50
# Experimental: Measurement of Inhibitory Activity of Platelet Aggregation in Rats
# Wistar rats (male, approximately 400 g) were made to fast for 1 day, then the entire blood was taken from the abdominal artery under anesthesia by ether. To this was added a 3.8% aqueous solution of sodium citrate in a 1/10 amount followed by immediate mixture. This was centrifuged at 1000 rpm for 10 minutes. The top layer was used as the platelet rich plasma. The bottom layer was centrifuged at 3000 rpm for 10 minutes and the top layer was used as the platelet poor plasma. The platelet rich plasma was diluted by the platelet poor plasma to give a platelet count of […]. This was used for the measurement. Note that the platelets were measured using an automatic blood cell counter MEK-4500 (Nihon Koden). The platelet aggregation was measured by measuring the turbidity using an NBS HEMATRACER 801 (M. C. Medical). 90 μl of the platelets were placed in cuvettes, then 5 μl of the different test compounds were added to give the target final concentration, then these were heated for 1 minute at 37° C., then 5 μl of an aqueous solution of 100 μM adenosine 2-phosphoric acid (M. C. Medical) was added to cause platelet aggregation. The activity inhibiting aggregation was found from the following formula: […]
# Aggregation inhibiting rate (%)
# ={1-(maximum change in turbidity at time of addition of test compound)
# .div.(maximum change in turbidity at time of no addition of test compound)}
row,IC50 [nM],Structure (SMILES)
1,760,CCCC[C@@H](C)C[C@H](O)/C=C/[C@@H]1C(SCCCCCC(=O)OC)=CC[C@H]1O [drawing 104]
2,2200,CCCC[C@@H](C)C[C@H](O)/C=C/[C@@H]1C(SCCCCCC(=O)O)=CC[C@H]1O [drawing 105]
3,4500,CCCC[C@@H](C)C[C@H](O)/C=C/[C@@H]1C(SCCCCCC(=O)OC)=C(C)C[C@H]1O [drawing 103]
